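Values below derive from 48-hour exposures of cells grown in 96-well plates, with endpoints linearly interpolated between the two concentrations bracketing the appropriate inhibition level. TGI denotes the concentration required for complete inhibition of growth.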
Tests used:
Assay in all cases: NCI-60 cell line screen, 48 h
[1] = system: 786-0 renal
[2] = system: A498 renal
[3] = system: A549 NSCLC
[4] = system: ACHN renal
[5] = system: BT-549 breast
[6] = system: CAKI-1 renal
[7] = system: CCRF-CEM leukemia
[8] = system: COLO 205 colon
[9] = system: DU-145 prostate
[10] = system: EKVX NSCLC
[11] = system: HCC-2998 colon
[12] = system: HCT-116 colon
[13] = system: HCT-15 colon
[14] = system: HOP-62 NSCLC
[15] = system: HS 578T breast
[16] = system: HT29 colon
[17] = system: K-562 leukemia
[18] = system: KM12 colon
[19] = system: M14 melanoma
[20] = system: MALME-3M melanoma
[21] = system: MCF7 breast
[22] = system: MDA-MB-231 breast
[23] = system: MDA-MB-435
[24] = system: MDA-N
[25] = system: MOLT-4 leukemia
[26] = system: NCI-H226 lung
[27] = system: NCI-H23 lung
[28] = system: NCI-H460 lung
[29] = system: NCI/ADR-RES ovarian
[30] = system: OVCAR-3 ovarian
[31] = system: OVCAR-4 ovarian
[32] = system: OVCAR-5 ovarian
[33] = system: OVCAR-8 ovarian
[34] = system: PC-3 prostate
[35] = system: RPMI-8226 leukemia
[36] = system: RXF 393 renal
[37] = system: SF-268 CNS
[38] = system: SF-295 CNS
[39] = system: SF-539 CNS
[40] = system: SK-MEL-2 melanoma
[41] = system: SK-MEL-28 melanoma
[42] = system: SK-OV-3 ovarian
[43] = system: SN12C renal
[44] = system: SNB-19 CNS
[45] = system: SNB-75 CNS
[46] = system: SW-620 colon
[47] = system: T-47D breast
[48] = system: U251 CNS
[49] = system: UACC-257 melanoma
[50] = system: UACC-62 melanoma
[51] = system: UO-31 renal
[52] = system: HOP-92 NSCLC
[53] = system: IGROV1 ovarian
[54] = system: LOX IMVI melanoma
[55] = system: NCI-H522 lung
[56] = system: SK-MEL-5 melanoma
[57] = system: TK-10 renal

Cc1n[nH]c(=O)n1/N=C/c1cccc(Cl)c1
TGI [1]: > 100 µM
TGI [2]: > 100 µM
TGI [3]: > 100 µM
TGI [4]: > 100 µM
TGI [5]: > 100 µM
TGI [6]: > 100 µM
TGI [7]: > 100 µM
TGI [8]: > 100 µM
TGI [9]: > 100 µM
TGI [10]: > 100 µM
TGI [11]: > 100 µM
TGI [12]: > 100 µM
TGI [13]: > 100 µM
TGI [14]: > 100 µM
TGI [15]: 39.7 µM
TGI [16]: > 100 µM
TGI [17]: > 100 µM
TGI [18]: > 100 µM
TGI [19]: > 100 µM
TGI [20]: > 100 µM
TGI [21]: > 100 µM
TGI [22]: > 100 µM
TGI [23]: > 100 µM
TGI [24]: > 100 µM
TGI [25]: > 100 µM
TGI [26]: > 100 µM
TGI [27]: > 100 µM
TGI [28]: > 100 µM
TGI [29]: > 100 µM
TGI [30]: > 100 µM
TGI [31]: > 100 µM
TGI [32]: > 100 µM
TGI [33]: > 100 µM
TGI [34]: > 100 µM
TGI [35]: > 100 µM
TGI [36]: > 100 µM
TGI [37]: > 100 µM
TGI [38]: > 100 µM
TGI [39]: > 100 µM
TGI [40]: > 100 µM
TGI [41]: > 100 µM
TGI [42]: > 100 µM
TGI [43]: > 100 µM
TGI [44]: > 100 µM
TGI [45]: > 100 µM
TGI [46]: > 100 µM
TGI [47]: > 100 µM
TGI [48]: > 100 µM
TGI [49]: > 100 µM
TGI [50]: > 100 µM
TGI [51]: > 100 µM

C=CCN(c1cc(OCc2ccccc2)c2c(c(C)cn2S(=O)(=O)c2ccc([N+](=O)[O-])cc2)c1[N+](=O)[O-])S(C)(=O)=O
TGI [1]: > 100 µM
TGI [3]: > 100 µM
TGI [4]: > 100 µM
TGI [5]: > 100 µM
TGI [6]: > 100 µM
TGI [7]: > 52.3 µM
TGI [8]: > 100 µM
TGI [9]: > 100 µM
TGI [10]: > 100 µM
TGI [11]: > 100 µM
TGI [12]: > 100 µM
TGI [13]: > 100 µM
TGI [14]: > 100 µM
TGI [52]: > 100 µM
TGI [15]: > 100 µM
TGI [16]: > 100 µM
TGI [53]: > 100 µM
TGI [17]: > 100 µM
TGI [18]: > 100 µM
TGI [54]: > 100 µM
TGI [19]: > 100 µM
TGI [20]: > 100 µM
TGI [21]: > 100 µM
TGI [22]: > 100 µM
TGI [23]: 54.1 µM
TGI [24]: > 100 µM
TGI [25]: > 100 µM
TGI [26]: > 100 µM
TGI [27]: > 100 µM
TGI [28]: > 100 µM
TGI [55]: > 100 µM
TGI [29]: > 100 µM
TGI [30]: > 100 µM
TGI [31]: > 100 µM
TGI [32]: > 100 µM
TGI [33]: > 100 µM
TGI [34]: > 100 µM
TGI [35]: > 100 µM
TGI [36]: > 100 µM
TGI [37]: > 100 µM
TGI [38]: > 100 µM
TGI [39]: > 100 µM
TGI [40]: > 100 µM
TGI [41]: > 100 µM
TGI [56]: > 100 µM
TGI [42]: > 100 µM
TGI [43]: > 100 µM
TGI [44]: > 100 µM
TGI [45]: > 100 µM
TGI [47]: > 100 µM
TGI [57]: > 100 µM
TGI [48]: > 100 µM
TGI [49]: > 100 µM
TGI [50]: > 100 µM
TGI [51]: > 100 µM
